From patent US6767906B2, “2-amino-6-anilino-purines and their use as medicaments” (Novartis AG, priority 1999, dated 2004) come the findings set out here.

For `CCn1cnc2c(Nc3ccc(NC(=O)Oc4ccccc4)cc3)nc(N[C@H]3CC[C@H](O)CC3)nc21`, the melting point was 135 to 139 °C.

For `CCn1cnc2c(Nc3cccc(NC(=O)Oc4ccccc4)c3)nc(N[C@H]3CC[C@H](O)CC3)nc21`, the melting point was 131 to 134 °C.

In turn, `CCCCc1ccc(N(c2nc(N[C@H]3CCCC[C@H]3C(N)=O)nc3c2ncn3CC)S(N)(=O)=O)cc1` (relative stereo) [Example 1, cis-2-[6-(4-butyl-aminosulfonyl-phenylamino)-9-ethyl-9H-purin-2-yl-amino]-cyclohexanecarboxylic acid amide] displayed a melting point of 220 °C.

Take `CCn1cnc2c(Nc3cccc(C(=O)NCc4ccccc4)c3)nc(N[C@H]3CC[C@H](O)CC3)nc21` [Example 72, N-benzyl-3-[9-ethyl-2-(trans-4-hydroxy-cyclohexylamino)-9H-purin-6-yl-amino]-benzamide]: the melting point was found to be 215 °C.

For `CCn1cnc2c(Nc3cccc(C(=O)NCc4ccc(F)cc4)c3)nc(N[C@H]3CC[C@H](O)CC3)nc21` [Example 73, 3-[9-ethyl-2-(trans-4-hydroxy-cyclohexylamino)-9H-purin-6-yl-amino]-N-(4-fluoro-benzyl)-benzamide], the melting point was 165 to 167 °C.

Take `CCn1cnc2c(Nc3cccc(C(=O)NCc4ccc(C)cc4)c3)nc(N[C@H]3CC[C@H](O)CC3)nc21` [Example 74, 3-[9-ethyl-2-(trans-4-hydroxy-cyclohexylamino)-9H-purin-6-yl-amino]-N-(4-methyl-benzyl)-benzamide]: the melting point fell in the range of 130 to 134 °C.

`CCn1cnc2c(Nc3cccc(C(=O)NCc4ccc(OC)cc4)c3)nc(N[C@H]3CC[C@H](O)CC3)nc21` [Example 75, 3-[9-ethyl-2-(trans-4-hydroxy-cyclohexylamino)-9H-purin-6-yl-amino]-N-(4-methoxy-benzyl)-benzamide] displayed a melting point of 157 to 158 °C.

In the case of `CCn1cnc2c(Nc3cccc(C(=O)NCc4ccc(C(F)(F)F)cc4)c3)nc(N[C@H]3CC[C@H](O)CC3)nc21` [Example 76, 3-[9-ethyl-2-(trans-4-hydroxy-cyclohexylamino)-9H-purin-6-yl-amino]-N-(4-trifluoromethyl-benzyl)-benzamide], the melting point is 129 to 137 °C.

For `CCn1cnc2c(Nc3cccc(NS(C)(=O)=O)c3)nc(N[C@H]3CC[C@H](O)CC3)nc21` [Example 80, N-{3-[9-Ethyl-2-(trans-4-hydroxy-cyclo-hexylamino)-9H-purin-6-yl-amino]-phenyl} methanesulfonamide], the melting point lay within 265 to 267 °C.

As for `CCn1cnc2c(Nc3cccc(NS(=O)(=O)c4ccc(OC)cc4)c3)nc(N[C@H]3CC[C@H](O)CC3)nc21` [Example 82, N-{3-[9-Ethyl-2-(trans-4-hydroxy-cyclo-hexylamino)-9H-purin-6-yl-amino]-phenyl}-4-methoxy-benzenesulfonamide], the melting point lay in the range of 140 to 143 °C.

On to `CCn1cnc2c(Nc3ccc(NC(=O)OC)cc3)nc(N[C@H]3CC[C@H](O)CC3)nc21` [Example 83, {4-(9-Ethyl-2-(trans-4-hydroxy-cyclo-hexylamino)-9H-purin-6-yl-amino]-phenyl)-carbamic acid methyl ester], for which the melting point fell in the range of 131 to 135 °C.

The compound `CCn1cnc2c(Nc3ccc(NC(=O)OCC(C)C)cc3)nc(N[C@H]3CC[C@H](O)CC3)nc21` [Example 84, {4-[9-Ethyl-2-(trans-4-hydroxy-cyclo-hexylamino)-9H-purin-6-yl-amino]-phenyl}-carbamic acid isobutyl ester] gave a melting point of 121 to 125 °C.

For `CCn1cnc2c(Nc3cccc(NC(=O)OC)c3)nc(N[C@H]3CC[C@H](O)CC3)nc21` [Example 86, {3-[9-Ethyl-2-(trans-4-hydroxy-cyclo-hexylamino)-9H-purin-6-yl-amino]-phenyl}-carbamic acid methyl ester], the melting point fell in the range of 214 to 217 °C.
